Data on seven compounds can be found in paper PMC12430544 (Molecules, 2025).

The target of data set [1] is T1, acetylcholinesterase (AChE, from an electric eel) (Electrophorus electricus, UniProt O42275).
T1 construct: purchased Sigma-Aldrich
The data set is described as follows: biochemical. Particulars: for IC50: electric eel AChE, Ellman's method, pH 7.4, means ± SEM of at least three experiments, read-out: IC50 AChE Inhibition; for Selectivity Index = IC50 (AChE)/IC50 (BuChE): ratio of eeAChE and equine BuChE IC50. How it is done:
(§1) Cholinesterase (ChE) inhibitory activity was evaluated using a modified Ellman’s spectrophotometric method. Acetylcholinesterase (AChE, from electric eel), butyrylcholinesterase (BuChE, from equine serum), 5,5′-dithiobis-(2-nitrobenzoic acid) (Ellman’s reagent, DTNB), S-butyrylthiocholine iodide (BTCI), acetylthiocholine iodide (ATCI), and tarcine hydrochloride were purchased from Sigma-Aldrich. Tarcine hydrochloride was used as a reference standard. All the assays were carried out in 0.1 M KH2PO4/K2HPO4 buffer (pH = 7.4). Stock solutions of tested compounds (10 mM) were prepared in DMSO (below 0.5%, v/v) and diluted in phosphate buffer. The assay was performed in 96-well plate by adding 25 μL of 1 mM acetylthiocholine iodide or butyrylthiocholine iodide used as substrate in the assay, 125 μL of 1 mM 5,5′-dithiobis-(2-nitrobenzoic acid) (DTNB), 25 μL of 0.1 M phosphate buffer (pH = 7.4), 25 μL of testing substance in various concentrations, and 50 μL of 0.2 Units/mL AChE from an electric eel or BuChE from equine serum, respectively. At least five concentrations of the test compounds were assayed. […] The enzyme activity and the percentage inhibition were determined.
(In Ellman's method for cholinesterases, released thiocholine reacts with DTNB.)

Data set [2] concerns the target T2, butyrylcholinesterase (BuChE, from horse serum) (Equus caballus, UniProt P81908).
T2 construct: purchased Sigma-Aldrich
The data set is described as follows: biochemical. Particulars: equine serum BuChE, Ellman's method, pH 7.4; means ± SEM of at least three experiments; read-out: IC50 BuChE Inhibition. How it is done: as §1

The target in a further data set is T3, Aβ1–42 (Homo sapiens, UniProt P05067).
T3 construct: aggregation of Aβ1–42 synthetic peptide into fibrils
T3 sequence (P05067 672-713): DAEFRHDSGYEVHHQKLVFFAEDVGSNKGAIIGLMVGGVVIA
The data set is described as follows: Inhibition of self-induced Aβ1–42 aggregation (ThT fluorescence). It is filed as biochemical. Particulars: 20 μM compound, thioflavin-T fluorescence, mean ± SD of at least three independent experiments; read-out: Aβ Aggregation Inhibition (%), self-induced Aβ1–42. The method, then:
Self-induced Aβ1–42 aggregation of all the compounds we obtained was also evaluated. […] ThT is a histochemical dye that is known to bind to the peptide β-sheet conformation, which is the predominant secondary structure of amyloid-beta fibrils. […] The inhibition studies were carried out upon incubating Aβ1–42 with and without the compounds.
Aβ1–42 was dissolved in 100% 1,1,1,3,3,3-[…] (HFIP) to a concentration of 1 mg/mL, sonicated in a water bath overnight, aliquoted into microcentrifuge tubes, dried under vacuum, and stored at −20 °C. Immediately prior to use, the HFIP-treated Aβ1–42 was dissolved in dimethylsulfoxide (DMSO) as the stored solution. […] Amounts of 5 μL of compound (200 μM) and 5 μL of 200 μM Aβ1–42 were added into 40 μL of phosphate-buffered saline (PBS at pH 7.4). After incubation at room temperature on a thermostatic shaker for 72 h, 100 μL of 5 μM ThT solution (in PBS at pH 7.4) was added to the reaction solution. […] The Aβ1–42 aggregation inhibition percentage was calculated using the following formula: inhibition percentage = (F1 − F2)/(F1 − F0) × 100%.

Data set [3] can be described thus: Metal chelation by UV–vis spectrometry, Job's method and affinity estimate (Cu). It counts as physicochemical. Particulars: for LogK Cu (affinity of ligand for Cu^II, ML2): 2L+M⇔ML2; for Mole fraction of compound at the intersection of the Job plot (Cu^II): Job's method, CuSO4, sum of concentrations 20 μm; for Maximum absorption of compound–Cu^II complex: bathochromic shift from 246 nm of the free compound. The text has this:
(§2) Given the 8-hydroxy(amino)quinoline moiety with the properties to bind metal ions, the abilities of all the compounds in binding metal ions (Cu^II, Fe^III, Zn^II) were studied by UV–vis spectrometry. At first three compounds were chose to test the binding abilities. Upon the addition of CuCl2 or ZnSO4 the maximum absorption suffered a bathochromic shift, pointing out the formation of complex compound–Cu^II. […] […].
(§3) To determine the stoichiometry of the complex compound–Cu^II, the technique of continuous variations (also called Job’s method) was used by preparing solutions of compounds 15a, 17b and CuSO4 so that the sum of concentrations of both species was constant at […] in all samples, but the proportions of both components varied between 0 and 100%. The UV spectra were recorded and the absorbance change at the maximum absorption wavelength of the compound-Cu^II complex, meaning the 15a-Cu^II complex at 264 nm and the 17b-Cu^II at 265 nm, respectively. The absorbance change was plotted versus the mole fraction of the compound, giving two straight lines whose equations were calculated. […] […].
(§4) Since all the ligands studied L from ML2 species and in accordance with the Beer–Lambert law, complexation reactions can be summarized as 2L+M⇔ML2 with K = 1−α/4C^2α^3 , and α can be calculated from the data of the absorption.
(§5) Metal-chelating properties were evaluated by UV–vis spectrometry. To screen the ability of chelating metal ions, the same concentrations of compound and metal ion were mixed in CH3OH/H2O (v/v = 9/1), and the UV–vis spectrum was tested; compared to the compound, the maximum absorption that suffered a bathochromic shift would point out the formation of a complex compound–metal ion. The stoichiometry of the complex compound–metal ion was determined by Job’s method. The affinity of compounds 15–17 as ligands (excepted 15f, 16d, 16g, 16k) for Cu^II or Zn^II were estimated in the CH3OH/H2O solution (v/v = 9/1). Since all the ligands studied L from ML2 species and in accordance with the Beer–Lambert law, complexation reactions can be summarized as 2L+M⇔ML2 with K = 1−α/4C^2α^3 , and α = A/Amax; A was the data of absorption tested when the compound–metal ion = 2/1 under the maximum absorption wavelength of the complex, Amax was the absorption when the compound completely formed a complex with the metal ion; the data can be obtained as an approximation when the metal ion is in excess, and the absorption changes little as the concentration of metal ion still increases.

A short description of data set [4]: Metal chelation by UV–vis spectrometry, stoichiometry and affinity estimate (Zn). It is filed as physicochemical. Particulars: for LogK Zn (affinity of ligand for Zn^II, ML2): 2L+M⇔ML2; for Maximum absorption of compound–Zn^II complex: bathochromic shift from 246 nm of the free compound.
Source text: as §2, §3, §4, §5

A short description of data set [5]: Metal chelation by UV–vis spectrometry (Fe). It counts as physicochemical. How it is done: as §2, §5
For data set [6], the target named is T4, electric eel AChE (eeAChE) (Electrophorus electricus, UniProt O42275).
T4 construct: purchased Sigma-Aldrich
T4 sequence (O42275 24-633): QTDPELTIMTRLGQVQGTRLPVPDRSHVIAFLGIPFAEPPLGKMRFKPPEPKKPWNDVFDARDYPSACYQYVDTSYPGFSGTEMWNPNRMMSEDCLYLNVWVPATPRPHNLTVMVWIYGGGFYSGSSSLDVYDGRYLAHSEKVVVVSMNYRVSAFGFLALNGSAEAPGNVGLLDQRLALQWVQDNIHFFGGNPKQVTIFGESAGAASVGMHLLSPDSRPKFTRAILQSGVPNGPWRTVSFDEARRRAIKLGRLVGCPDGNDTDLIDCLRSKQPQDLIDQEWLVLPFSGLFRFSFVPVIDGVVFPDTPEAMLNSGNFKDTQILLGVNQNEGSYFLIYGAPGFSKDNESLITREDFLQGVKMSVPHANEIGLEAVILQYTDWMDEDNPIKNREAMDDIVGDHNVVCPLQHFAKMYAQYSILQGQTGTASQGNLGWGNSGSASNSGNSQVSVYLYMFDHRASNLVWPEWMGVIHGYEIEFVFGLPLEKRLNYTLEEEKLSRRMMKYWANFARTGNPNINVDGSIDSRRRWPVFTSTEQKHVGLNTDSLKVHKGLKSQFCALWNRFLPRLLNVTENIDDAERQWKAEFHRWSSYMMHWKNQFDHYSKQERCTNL
The experiment in a line: Kinetic study of AChE inhibition (Lineweaver–Burk plots). It counts as biochemical. Particulars: 16e at 10, 50 and 100 nM, Lineweaver–Burk plot.
Protocol: To elucidate the mechanism of AChE’s inhibition by the synthesized hybrids, a detailed enzyme kinetic study was conducted using electric eel AChE (eeAChE).
The slope (Km/Vmax) reflects the apparent enzyme–substrate affinity, whereas the y-intercept (1/Vmax) corresponds to the maximum reaction velocity.
The assay medium contained 25 μL of PBS (pH 7.4), 50 μL of enzyme, 25 μL of compound solution, and 125 μL of 1.0 mM DTNB; the reaction was started by addition of 25 μL of different concentrations of ATC.
The slope (Km/Vmax) reflects the enzyme’s affinity for the substrate in the presence of the inhibitor, while the y-intercept (1/Vmax) indicates the maximum velocity of the reaction.

Details of data set [7]: method as in PMID 17382398. Particulars: data from the literature ref 50; cited from earlier work.
Details of data set [8]: method as in PMID 17382398. Particulars: data from the literature ref 50; cited from earlier work. This is another data set of the same source.

Where “and” joins values, the source holds several entries; their conditions need not be identical. Identical values can stand only once.

T1 sequence (O42275 24-633): as above
T2 sequence (P81908 whole entry): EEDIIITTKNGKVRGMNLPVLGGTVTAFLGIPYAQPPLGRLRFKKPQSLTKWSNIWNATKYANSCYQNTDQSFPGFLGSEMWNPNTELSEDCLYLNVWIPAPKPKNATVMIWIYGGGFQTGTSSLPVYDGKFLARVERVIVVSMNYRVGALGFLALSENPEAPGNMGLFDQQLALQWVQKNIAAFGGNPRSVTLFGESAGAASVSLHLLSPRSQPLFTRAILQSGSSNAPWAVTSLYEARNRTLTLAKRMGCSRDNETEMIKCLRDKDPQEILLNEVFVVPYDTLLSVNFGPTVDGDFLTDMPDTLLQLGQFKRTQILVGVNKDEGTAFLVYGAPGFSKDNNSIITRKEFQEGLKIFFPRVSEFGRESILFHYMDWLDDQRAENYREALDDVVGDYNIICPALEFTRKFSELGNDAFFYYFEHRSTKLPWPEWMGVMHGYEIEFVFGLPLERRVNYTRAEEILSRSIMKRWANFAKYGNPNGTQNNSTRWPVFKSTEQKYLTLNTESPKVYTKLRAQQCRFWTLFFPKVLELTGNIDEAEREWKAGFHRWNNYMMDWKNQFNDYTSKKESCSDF

The IC50 is the midpoint of a concentration-inhibition curve. As a reminder, the inhibition is the percentage by which the read-out fell short of the control. Turning to `O=C(CN1CCN(Cc2ccc3cccc(O)c3n2)CC1)Nc1c2c(nc3ccccc13)CCCC2` [Compound 15a, 2-(4-((8-Hydroxyquinolin-2-yl)methyl)piperazin-1-yl)-N-(1,2,3,4-tetrahydroacridin-9-yl)acetamide], the IC50 was found to be 2.02 ± 0.12 µM in [1] and 7.74 ± 0.89 µM in [2]. Moreover, the “Selectivity Index = IC50 (AChE)/IC50 (BuChE)” value (“Selectivity Index = IC50” below) in [1] is recorded as 0.26. Further, the inhibition at 20 µM at Aβ1–42 came to 46.8 ± 4.1%. Further, the “LogK Cu (affinity of ligand for Cu^II, ML2)” value in [3] (CH3OH/H2O (v/v = 9/1), UV–vis) is listed as 10.14. Further, in [3], the “Mole fraction of compound at the intersection of the Job plot (Cu^II)” value is listed as “around 0.7”. Further, the “Maximum absorption of compound–Cu^II complex” value in [3] (UV–vis) is listed as 264 nm. The “LogK Zn (affinity of ligand for Zn^II, ML2)” value in data set [4] (CH3OH/H2O (v/v = 9/1)) is 9.91. Further, in [4], the “Maximum absorption of compound–Zn^II complex” value is 266 nm and 262 nm. Moreover, the “Complex formation with Fe^III (UV–vis shift)” value in data set [5] is “no reliable shift”.

Consider `Oc1cccc2ccc(CN3CCN(CCCNc4c5c(nc6ccccc46)CCCC5)CC3)nc12` [Compound 16e, 2-((4-(3-((1,2,3,4-Tetrahydroacridin-9-yl)amino)propyl)piperazin-1-yl)methyl)quinolin-8-ol], for which, in data set [1], the IC50 stood at 0.1 ± 0.0032 µM and the “Selectivity Index = IC50” value is 2.33. In addition, the half-inhibitory concentration (IC50) in data set [2] was 0.043 ± 0.005 µM. The “Type of AChE inhibition” value in [6] was “mixed-type inhibition”. Further, the inhibition at 20 µM on Aβ1–42 came out at 80.5 ± 4.4%. The “LogK Cu (affinity of ligand for Cu^II, ML2)” value in data set [3] (CH3OH/H2O (v/v = 9/1), UV–vis) is 9.46. The “LogK Zn (affinity of ligand for Zn^II, ML2)” value in [4] (CH3OH/H2O (v/v = 9/1)) is given as 9.63.

Take `Nc1cccc2ccc(CN3CCN(CCCNc4c5c(nc6ccccc46)CCCC5)CC3)nc12` [Compound 16g, N-(3-(4-((8-aminoquinolin-2-yl)methyl)piperazin-1-yl)propyl)-1,2,3,4-tetrahydroacridin-9-amine]: in [1], the IC50 was 0.052 ± 0.001 µM and the “Selectivity Index = IC50” value is recorded as 2.89. Moreover, the IC50 in data set [2] came to 0.018 ± 0.003 µM. Moreover, the inhibition at 20 µM on Aβ1–42 was 94.6 ± 4.2%. Also, in [3] (UV–vis, CH3OH/H2O (v/v = 9/1)), the “Complex formation with Cu^II (UV–vis shift / binding)” value was “no reliable shift”. In data set [4] (CH3OH/H2O (v/v = 9/1)), the “Complex formation with Zn^II (UV–vis shift / binding)” value was “no reliable shift”. Moreover, in data set [5], the “Complex formation with Fe^III (UV–vis shift)” value was “no reliable shift”.

As to `Oc1ccc(Cl)c2ccc(CN3CCN(CCCCCNc4c5c(nc6ccccc46)CCCC5)CC3)nc12` [Compound 16j, 5-Chloro-2-((4-(5-((1,2,3,4-tetrahydroacridin-9-yl)amino)pentyl)piperazin-1-yl)methyl)quinolin-8-ol], in data set [1], the IC50 came out at 0.13 ± 0.02 µM and the “Selectivity Index = IC50” value worked out at 2.89. Moreover, the 50% inhibitory concentration (IC50) in data set [2] turned out to be 0.045 ± 0.011 µM. The inhibition at 20 µM on Aβ1–42 stood at 74.8 ± 4.7%. Besides, the “LogK Cu (affinity of ligand for Cu^II, ML2)” value in [3] (CH3OH/H2O (v/v = 9/1), UV–vis) is 9.96. Also, the “LogK Zn (affinity of ligand for Zn^II, ML2)” value in data set [4] (CH3OH/H2O (v/v = 9/1)) is 9.65.

As to `O=C(CN1CCN(Cc2ccc(O)c3ncccc23)CC1)Nc1c2c(nc3ccccc13)CCCC2` [Compound 17a, 2-(4-((8-Hydroxyquinolin-5-yl)methyl)piperazin-1-yl)-N-(1,2,3,4-tetrahydroacridin-9-yl)acetamide], in data set [1], the IC50 is 4.46 ± 0.33 µM and the “Selectivity Index = IC50” value stood at 1.08. The IC50 in data set [2] was found to be 4.13 ± 0.1 µM. Further, the inhibition at 20 µM at Aβ1–42 worked out at 24.6 ± 3.7%. Also, the “LogK Cu (affinity of ligand for Cu^II, ML2)” value in data set [3] (CH3OH/H2O (v/v = 9/1), UV–vis) is recorded as 9.50. Besides, the “LogK Zn (affinity of ligand for Zn^II, ML2)” value in [4] (CH3OH/H2O (v/v = 9/1)) was 9.67.

As to `Cc1ccc2c(CN3CCN(CC(=O)Nc4c5c(nc6ccccc46)CCCC5)CC3)ccc(O)c2n1` [Compound 17b, 2-(4-((8-Hydroxy-2-methylquinolin-5-yl)methyl)piperazin-1-yl)-N-(1,2,3,4-tetrahydroacridin-9-yl)acetamide], in data set [1], the IC50 turned out to be 2.53 ± 0.2 µM and the “Selectivity Index = IC50” value came to 0.58. Further, the IC50 in [2] was determined as 4.39 ± 0.27 µM. The inhibition at 20 µM at Aβ1–42 worked out at 23.3 ± 3.2%. Also, the “LogK Cu (affinity of ligand for Cu^II, ML2)” value in [3] (CH3OH/H2O (v/v = 9/1), UV–vis) was 9.42. The “Mole fraction of compound at the intersection of the Job plot (Cu^II)” value in [3] is recorded as “around 0.7”. Moreover, the “Maximum absorption of compound–Cu^II complex” value in [3] (UV–vis) was 265 nm. In addition, the “LogK Zn (affinity of ligand for Zn^II, ML2)” value in data set [4] (CH3OH/H2O (v/v = 9/1)) is reported as 9.71. The “Maximum absorption of compound–Zn^II complex” value in data set [4] is 262 nm. The “Complex formation with Fe^III (UV–vis shift)” value in data set [5] is listed as “no reliable shift”.

`Oc1c(I)cc(Cl)c2cccnc12` [clioquinol, reference compound]: the “LogK Cu (affinity of ligand for Cu^II, ML2)” value in data set [3] (CH3OH/H2O (v/v = 9/1), UV–vis) is reported as 9.86. In data set [4] (CH3OH/H2O (v/v = 9/1)), the “LogK Zn (affinity of ligand for Zn^II, ML2)” value is listed as 8.38. Moreover, the “LogK Cu, value in parentheses” value in data set [7] was 10.08. Further, the “LogK Zn, value in parentheses” value in data set [8] is recorded as 8.84.
